Test results taken from publication PMC11952222, “Development and comparison of single FLT3-inhibitors to dual FLT3/TAF1-inhibitors as an anti-leukemic approach” (PLOS One, 2025).
“And” between values parts separate entries of the source, which are not always exact repeats. Identical values can stand only once. Like-named read-outs stand apart in the source and are kept apart here.

Experiments:
FLT3 = target: T1, FLT3 (Homo sapiens, UniProt P36888); assay: Eurofins/DiscoverX KdELECT, FLT3 kinase IC50; assay type: binding; conditions: 11-point 3-fold dilution, top concentration 10,000 nM
T1 construct: purchased Eurofins/DiscoverX
T1 sequence (P36888 27-993): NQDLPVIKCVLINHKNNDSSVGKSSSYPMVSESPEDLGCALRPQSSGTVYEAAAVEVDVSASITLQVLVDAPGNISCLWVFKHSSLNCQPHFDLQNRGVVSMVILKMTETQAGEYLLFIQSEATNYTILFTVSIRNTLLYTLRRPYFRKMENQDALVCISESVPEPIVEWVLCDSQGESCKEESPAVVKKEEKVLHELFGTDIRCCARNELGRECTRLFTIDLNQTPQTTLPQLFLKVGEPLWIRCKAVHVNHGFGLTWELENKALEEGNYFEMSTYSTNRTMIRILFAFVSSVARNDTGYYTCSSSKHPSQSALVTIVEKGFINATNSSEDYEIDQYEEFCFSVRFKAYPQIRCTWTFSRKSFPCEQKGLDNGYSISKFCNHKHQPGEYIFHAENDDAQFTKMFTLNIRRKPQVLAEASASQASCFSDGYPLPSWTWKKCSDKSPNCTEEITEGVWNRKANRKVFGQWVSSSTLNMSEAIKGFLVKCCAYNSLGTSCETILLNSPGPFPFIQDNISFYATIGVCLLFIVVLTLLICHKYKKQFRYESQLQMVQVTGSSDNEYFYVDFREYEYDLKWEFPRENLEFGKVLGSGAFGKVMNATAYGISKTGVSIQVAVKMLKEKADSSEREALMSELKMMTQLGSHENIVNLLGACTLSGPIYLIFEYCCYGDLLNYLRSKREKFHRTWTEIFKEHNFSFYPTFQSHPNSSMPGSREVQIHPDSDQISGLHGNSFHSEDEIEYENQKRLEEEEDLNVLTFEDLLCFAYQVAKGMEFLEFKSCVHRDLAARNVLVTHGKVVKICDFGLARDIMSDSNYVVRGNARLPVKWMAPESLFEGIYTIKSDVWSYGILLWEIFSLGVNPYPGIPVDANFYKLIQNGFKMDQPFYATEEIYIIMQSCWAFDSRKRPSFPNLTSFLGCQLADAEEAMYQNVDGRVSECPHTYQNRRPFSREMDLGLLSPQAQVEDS
Procedure: (§1) The 3i-compounds underwent activity testing against a panel of 32 bromodomains using the Eurofins/DiscoverX bromoMAX assay, with specific focus on TAF1(2) bromodomain assessed by the KdELECT assay. In a similar manner, kinase activity was evaluated using a panel of 97 kinase proteins using the Eurofins/DiscoverX scanELECT and KdELECT assays, with specific focus on FLT3 protein. An 11-point 3-fold serial dilution of each test compound was prepared in 100% DMSO at 100x final test concentration and subsequently diluted to final concentration (DMSO 1%). […] Percent control was calculated using the following formula: ((test compound signal – positive control signal)/ (negative control signal – positive control signal)) × 100.

TAF1(2) bromodomain = target: T2, TAF1(2) bromodomain (Homo sapiens, UniProt P21675); assay: Eurofins/DiscoverX KdELECT, TAF1(2) bromodomain IC50; assay type: binding; conditions: 11-point 3-fold dilution, top concentration 10,000 nM
T2 construct: with specific focus on TAF1(2) bromodomain assessed by the KdELECT assay; purchased Eurofins/DiscoverX
T2 sequence (P21675 1519-1628 limits assumed): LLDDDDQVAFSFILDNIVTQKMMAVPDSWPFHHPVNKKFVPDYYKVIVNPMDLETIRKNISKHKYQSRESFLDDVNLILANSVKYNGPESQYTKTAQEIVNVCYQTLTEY
Procedure: as §1

FLT3(ITD,F691L) = assay: Eurofins/DiscoverX cell free kinase assay, percent control; assay type: binding; conditions: for per_control_1000nM FLT3(ITD,F691L): 1000 nM compound; for per_control_10000nM FLT3(ITD,F691L): 10000 nM compound
Procedure: as §1
(§2) Fig 2 Results of 3i-compound series at concentrations of 1 µM and 10 µM in a cell free Eurofins/DiscoverX assay for kinase and bromodomain proteins. (A) Single-targeted compounds with tyrosine kinase activity but without bromodomain activity. (B) Dual-targeted compounds with both tyrosine kinase and bromodomain activity.

FLT3_autoinhibited = target: T3, FLT3_autoinhibited (Homo sapiens, UniProt P36888); assay: as above; assay type: binding; conditions: for per_control_1000nM FLT3_autoinhibited: 1000 nM compound; for per_control_10000nM FLT3_autoinhibited: 10000 nM compound
T3 construct: purchased Eurofins/DiscoverX
T3 sequence (P36888 564-993 limits assumed): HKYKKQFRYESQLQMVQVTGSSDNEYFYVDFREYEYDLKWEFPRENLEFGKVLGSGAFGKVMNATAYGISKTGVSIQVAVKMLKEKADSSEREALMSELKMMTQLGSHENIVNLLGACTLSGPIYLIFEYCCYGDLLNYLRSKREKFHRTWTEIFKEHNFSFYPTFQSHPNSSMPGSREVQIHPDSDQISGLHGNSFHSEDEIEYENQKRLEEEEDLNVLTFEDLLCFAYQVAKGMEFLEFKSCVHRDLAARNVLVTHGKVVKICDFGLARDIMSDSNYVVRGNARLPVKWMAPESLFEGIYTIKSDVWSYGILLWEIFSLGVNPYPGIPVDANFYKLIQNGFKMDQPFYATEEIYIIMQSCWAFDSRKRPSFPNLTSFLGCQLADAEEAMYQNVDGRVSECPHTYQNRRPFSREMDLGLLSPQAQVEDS
Procedure: as §1, §2

KIT = target: T4, KIT (Homo sapiens, UniProt P10721); assay: as above; assay type: binding; conditions: for per_control_1000nM KIT: 1000 nM compound; for per_control_10000nM KIT: 10000 nM compound
T4 construct: purchased Eurofins/DiscoverX
T4 sequence (P10721 26-976): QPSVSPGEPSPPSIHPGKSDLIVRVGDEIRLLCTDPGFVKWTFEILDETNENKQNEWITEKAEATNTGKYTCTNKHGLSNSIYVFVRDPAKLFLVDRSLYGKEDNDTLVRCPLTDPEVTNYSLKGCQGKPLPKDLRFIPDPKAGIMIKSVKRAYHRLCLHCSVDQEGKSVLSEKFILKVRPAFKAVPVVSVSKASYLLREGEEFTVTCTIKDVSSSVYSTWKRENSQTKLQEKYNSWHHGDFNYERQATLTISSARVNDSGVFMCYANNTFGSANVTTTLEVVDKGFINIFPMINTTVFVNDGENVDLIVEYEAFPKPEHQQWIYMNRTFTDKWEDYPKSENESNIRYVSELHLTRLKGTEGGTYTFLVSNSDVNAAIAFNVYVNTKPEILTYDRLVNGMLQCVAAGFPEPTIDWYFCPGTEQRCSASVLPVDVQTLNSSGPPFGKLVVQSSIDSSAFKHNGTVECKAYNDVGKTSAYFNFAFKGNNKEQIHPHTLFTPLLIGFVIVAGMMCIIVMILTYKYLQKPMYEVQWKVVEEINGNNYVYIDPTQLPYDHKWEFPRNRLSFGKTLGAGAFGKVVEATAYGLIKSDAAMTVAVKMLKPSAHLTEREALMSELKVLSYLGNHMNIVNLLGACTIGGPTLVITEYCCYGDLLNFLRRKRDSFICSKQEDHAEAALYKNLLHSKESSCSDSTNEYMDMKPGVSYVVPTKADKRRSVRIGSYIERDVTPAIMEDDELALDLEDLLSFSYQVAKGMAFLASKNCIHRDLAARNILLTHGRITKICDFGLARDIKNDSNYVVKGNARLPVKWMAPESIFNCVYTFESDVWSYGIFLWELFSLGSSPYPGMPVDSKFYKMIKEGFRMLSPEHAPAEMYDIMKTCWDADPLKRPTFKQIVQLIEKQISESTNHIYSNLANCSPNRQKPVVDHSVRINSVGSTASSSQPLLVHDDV
Procedure: as §1, §2

PDGFRB = target: T5, PDGFRB (Homo sapiens, UniProt P09619); assay: as above; assay type: binding; conditions: for per_control_1000nM PDGFRB: 1000 nM compound; for per_control_10000nM PDGFRB: 10000 nM compound
T5 construct: purchased Eurofins/DiscoverX
T5 sequence (P09619 33-1106): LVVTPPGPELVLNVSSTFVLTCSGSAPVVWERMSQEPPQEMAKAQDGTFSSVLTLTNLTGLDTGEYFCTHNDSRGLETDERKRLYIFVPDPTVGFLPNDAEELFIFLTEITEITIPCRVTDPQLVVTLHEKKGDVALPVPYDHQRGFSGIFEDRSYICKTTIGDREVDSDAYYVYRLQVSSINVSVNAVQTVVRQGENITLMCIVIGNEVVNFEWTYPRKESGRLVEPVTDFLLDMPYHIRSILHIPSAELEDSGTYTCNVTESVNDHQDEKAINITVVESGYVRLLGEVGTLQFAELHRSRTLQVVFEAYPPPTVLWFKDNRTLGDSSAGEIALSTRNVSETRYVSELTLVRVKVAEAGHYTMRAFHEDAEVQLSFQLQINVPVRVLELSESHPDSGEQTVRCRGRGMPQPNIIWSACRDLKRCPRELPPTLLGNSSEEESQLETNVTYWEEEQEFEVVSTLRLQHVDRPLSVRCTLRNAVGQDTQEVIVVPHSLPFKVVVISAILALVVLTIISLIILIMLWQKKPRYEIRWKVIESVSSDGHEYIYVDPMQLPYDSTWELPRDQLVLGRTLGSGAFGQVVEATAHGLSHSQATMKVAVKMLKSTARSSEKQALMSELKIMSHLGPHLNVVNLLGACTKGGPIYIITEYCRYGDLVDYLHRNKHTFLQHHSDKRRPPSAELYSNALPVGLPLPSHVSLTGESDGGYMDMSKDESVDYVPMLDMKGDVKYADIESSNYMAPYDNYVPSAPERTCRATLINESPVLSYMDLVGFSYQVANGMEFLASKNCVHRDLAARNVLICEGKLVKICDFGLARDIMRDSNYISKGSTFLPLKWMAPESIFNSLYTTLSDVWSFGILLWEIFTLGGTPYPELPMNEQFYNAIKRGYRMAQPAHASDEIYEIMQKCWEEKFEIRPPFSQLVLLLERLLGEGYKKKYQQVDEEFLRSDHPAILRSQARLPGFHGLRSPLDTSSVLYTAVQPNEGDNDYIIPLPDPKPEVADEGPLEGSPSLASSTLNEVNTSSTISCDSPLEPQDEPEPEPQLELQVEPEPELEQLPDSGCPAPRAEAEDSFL
Procedure: as §1, §2

MOLM13 cells = assay: Cell viability, CellTiter Glo, MOLM13; assay type: cell-based; conditions: for IC50: 72h
Procedure: (§3) Drug sensitivity and resistance testing in MOLM13, DU4475, HDQP1, and IGROV1 cells was conducted at the Finnish Institute for Molecular Medicine (FIMM), University of Helsinki. In brief, the effects of compounds on cell viability and cell death were quantified with Cell-Titer Glo (Promega) and CellTox Green (Promega), respectively. Compounds or vehicle control were included in cell culture medium at described concentrations for 72h using an automated liquid dispenser in 384-well format. For KASUMI-1 experiments, cells were grown in 96-well plates and similarly incubated with compounds at indicated concentrations for 72h in RPMI + 10% FCS + Gentamicin, followed by lysis and quantification of cell viability with Cell-Titer Glo (Promega).
(§4) Raw values from viability and toxicity assays were normalized to DMSO and plotted to heat maps in R using pheatmap (RRID:SCR_016418). Dose-response curves were generated using the drc package in R [40]. In brief, nonlinear modelling was performed to calculate IC50 values for each compound where possible and resulting curves from drc and experimental values were plotted using ggplot2 (RRID:SCR_014601).

DU4475 cells = assay: Cell viability, CellTiter Glo, DU4475; assay type: cell-based; conditions: for IC50: 72h; for CTG normalized_to_DMSO: fraction relative to DMSO
Procedure: as §3, §4

[1] = kdELECT, read-out: TAF1(2) IC50
[2] = one independent experiment per value, read-out: MOLM13 IC50, individual dose-response curve (CellTiter Glo)
[3] = Homo sapiens, MOLM-13, 72 h, mean of n = 3 independent experiments, read-out: MOLM13 IC50 (CellTiter Glo)
[4] = one independent experiment per value, read-out: DU4475 IC50, individual dose-response curve (CellTiter Glo)
[5] = Homo sapiens, DU-4475, 72 h, mean of n = 3 independent experiments, read-out: DU4475 IC50 (CellTiter Glo)
[6] = Homo sapiens, DU-4475, 72 h, one independent experiment per value, read-out: DU4475 IC50, individual dose-response curve (CellTiter Glo)

| Structure (SMILES) | IC50 (FLT3) [nM] | IC50 (TAF1(2) bromodomain; [1]) | per_control_1000nM FLT3(ITD,F691L) (FLT3(ITD,F691L)) [percent control] | per_control_10000nM FLT3(ITD,F691L) (FLT3(ITD,F691L)) [percent control] | per_control_1000nM FLT3_autoinhibited (FLT3_autoinhibited) [percent control] | per_control_10000nM FLT3_autoinhibited (FLT3_autoinhibited) [percent control] | per_control_1000nM KIT (KIT) [percent control] | per_control_10000nM KIT (KIT) [percent control] | per_control_1000nM PDGFRB (PDGFRB) [percent control] | per_control_10000nM PDGFRB (PDGFRB) [percent control] | IC50 (MOLM13 cells; [2]) | IC50 (MOLM13 cells; [3]) [nM] | IC50 (DU4475 cells; [4]) | IC50 (DU4475 cells; [5]) [nM] | IC50 (DU4475 cells; [6]) [nM] | other results |
| --- | --- | --- | --- | --- | --- | --- | --- | --- | --- | --- | --- | --- | --- | --- | --- | --- |
| Cc1cc(-c2cc(NC(=O)c3ccc(C(C)(C)C)cc3)[nH]n2)ccn1 [Compound 3i-1246, 4-(tert-butyl)-N-(3-(2-methylpyridin-4-yl)-1H-pyrazol-5-yl)benzamide] | 18 | 280 nM and 260 nM | 3.3 | 1.6 | 0 | 1 | 0 | 0 | 0 | 0 | 183 nM and 423 nM and 272 nM | 293 | 7600 nM and 7800 nM | 7500 | 7100 |  |
| COc1ccc(-c2cc(NC(=O)c3ccc(C(C)(C)C)cc3)[nH]n2)cc1 [Compound 3i-1103] | < 1000 | 480 nM | 38 | 9.4 | 1.8 | 0.4 | 0 | 0 | 0 | 0 | 93.4 nM and 80.7 nM and 190 nM | 122 | 18200 nM and 19000 nM | 19800 | 22100 | CTG normalized_to_DMSO (DU4475 cells; DU4475, exp 1, 0.3 µM): 1.0025; CTG normalized_to_DMSO (DU4475 cells; DU4475, exp 1, 1 µM): 0.9677; CTG normalized_to_DMSO (DU4475 cells; DU4475, exp 1, 3 µM): 0.8934; CTG normalized_to_DMSO (DU4475 cells; DU4475, exp 1, 10 µM): 0.6779; CTG normalized_to_DMSO (DU4475 cells; DU4475, exp 1, 30 µM): 0.07396 |
| Cn1cc(-c2cc(NC(=O)c3ccc(C(C)(C)C)cc3)n[nH]2)ccc1=O [Compound 3i-1248, 4-(tert-butyl)-N-(5-(1-methyl-6-oxo-1,6-dihydropyridin-3-yl)-1H-pyrazol-3-yl)benzamide] | < 1000 | 5.1 nM | 29 | 1.9 | 63 | 12 | 8.2 | 0.1 | 11 | 0.35 | 539 nM and 1580 nM and 702 nM | 940 | 9800 nM and 9500 nM | 9400 | 8800 |  |
| CC(C)(C)c1ccc(C(=O)Nc2cc(-c3ccccc3)n[nH]2)cc1 [Compound 3i-1247, 4-(tert-butyl)-N-(3-phenyl-1H-pyrazol-5-yl)benzamide] | 1.5 |  | 9.7 | 0.1 | 1.1 | 0 | 0 | 0 | 0 | 0 | 38.7 nM and 137 nM and 42.4 nM |  | 2500 nM and 2900 nM and 2700 nM |  |  | IC50 (TAF1(2) bromodomain; TAF1(2) IC50, kdELECT): > 10000 nM; IC50 (MOLM13 cells; mean of n = 3 independent experiments, read-out: MOLM13 IC50 (CellTiter Glo)): 72.6 nM; anti-proliferative activity in MOLM13 cells (MOLM13 cells; comparison within the compound set): most potent compound overall; activity in DU4475 cells (DU4475 cells; compared to dual FLT3/TAF1(2) inhibitors 3i-1103, 3i-1246, 3i-1248): superior activity |
